Reference: ChEMBL document CHEMBL1201862, “PubChem BioAssay data set” (2004)
Activity calls are given as the source filed them.

Tests used:
[1] = target: Protein Rev (Human immunodeficiency virus type 1 group M subtype B (isolate HXB2)(HIV-1), UniProt P04618); test: blockers of HIV Rev/RRE RNA complex – biochemical, fluorescence polarization, HIV-1, dose response (AID 434976); design: species or system Human immunodeficiency virus 1
[2] = target: Female germline-specific tumor suppressor gld-1 (Caenorhabditis elegans, UniProt Q17339); test: blockers of GLD-1/TGE RNA complex formation – biochemical, fluorescence polarization, C. elegans, dose response (AID 2802);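 note: fluorescence polarization of labeled TGE RNA bound by purified gld-1 protein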
[3] = target: Voltage-dependent T-type calcium channel subunit alpha-1H (Homo sapiens, UniProt O95180); test: human CACNA1H calcium influx blockade – cell-based, synthetic library set 1, calcium flux (AID 493022); type: functional
[4] = target: Melanin-concentrating hormone receptor 1 (Homo sapiens, UniProt Q99705); test: Late-stage fluorescence-based counterscreen for antagonists of the G-protein coupled receptor 7 (GPR7): cell-based dose response assay to identify antagonists of the melanin-concentrating hormone receptor 1 (MCHR1). [Related pubchem assays (depositor defined):AID1861, AID1880, AID1952, AID2148, AID2251, AID2257, AID485339]; type: functional;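 note: stimulated with 30 nM MCH peptide agonist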
[5] = target: T1, Neuropeptides B/W receptor type 1 (Homo sapiens, UniProt P48145); test: human NPBW1 receptor blockade, IC50 – cell-based, fluorescence, dose response, late-stage follow-up (AID 463251); type: functional
T1 sequence (P48145 whole entry): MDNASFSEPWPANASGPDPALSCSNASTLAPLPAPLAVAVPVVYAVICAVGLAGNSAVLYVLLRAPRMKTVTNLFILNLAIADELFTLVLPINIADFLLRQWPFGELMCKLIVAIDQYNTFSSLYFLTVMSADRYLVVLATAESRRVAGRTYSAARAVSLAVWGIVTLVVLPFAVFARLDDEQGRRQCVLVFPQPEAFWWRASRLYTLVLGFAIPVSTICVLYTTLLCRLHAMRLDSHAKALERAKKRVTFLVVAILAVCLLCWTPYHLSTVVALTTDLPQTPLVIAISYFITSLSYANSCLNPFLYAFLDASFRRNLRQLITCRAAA

[6] = target: NACHT, LRR and PYD domains-containing protein 3 (Homo sapiens, UniProt Q96P20); test: NALP3 inhibitors in yeast, dose response, luminescent (AID 488799); type: functional
[7] = target: 1-acylglycerol-3-phosphate O-acyltransferase ABHD5/Perilipin-5 (Homo sapiens, UniProt Q00G26+Q8WTS1); test: Luminescence-based biochemical high throughput dose response assay for inhibitors of the interaction of the lipase co-activator protein, abhydrolase domain containing 5 (ABHD5) with perilipin-5 (MLDP; PLIN5) (2K validation set). [Related pubchem assays (depositor defined):AID493035, AID493241]
[8] = target: Perilipin-1/ABHD5 (Homo sapiens, UniProt O60240+Q8WTS1); test: Luminescence-based biochemical high throughput dose response assay for inhibitors of the interaction of the lipase co-activator protein, abhydrolase domain containing 5 (ABHD5) with perilipin-1 (PLIN1) (2K validation set). [Related pubchem assays (depositor defined):AID493027, AID493057]
[9] = target: Heat shock protein HSP 90-alpha (Homo sapiens, UniProt P07900); type: functional, organism-based
[10] = target: T2, Coagulation factor XII (Homo sapiens, UniProt P00748); test: activated coagulation factor XII inhibitor potency, concentration-effect curve, cell-free (AID 716); type: functional
T2 sequence (P00748 whole entry): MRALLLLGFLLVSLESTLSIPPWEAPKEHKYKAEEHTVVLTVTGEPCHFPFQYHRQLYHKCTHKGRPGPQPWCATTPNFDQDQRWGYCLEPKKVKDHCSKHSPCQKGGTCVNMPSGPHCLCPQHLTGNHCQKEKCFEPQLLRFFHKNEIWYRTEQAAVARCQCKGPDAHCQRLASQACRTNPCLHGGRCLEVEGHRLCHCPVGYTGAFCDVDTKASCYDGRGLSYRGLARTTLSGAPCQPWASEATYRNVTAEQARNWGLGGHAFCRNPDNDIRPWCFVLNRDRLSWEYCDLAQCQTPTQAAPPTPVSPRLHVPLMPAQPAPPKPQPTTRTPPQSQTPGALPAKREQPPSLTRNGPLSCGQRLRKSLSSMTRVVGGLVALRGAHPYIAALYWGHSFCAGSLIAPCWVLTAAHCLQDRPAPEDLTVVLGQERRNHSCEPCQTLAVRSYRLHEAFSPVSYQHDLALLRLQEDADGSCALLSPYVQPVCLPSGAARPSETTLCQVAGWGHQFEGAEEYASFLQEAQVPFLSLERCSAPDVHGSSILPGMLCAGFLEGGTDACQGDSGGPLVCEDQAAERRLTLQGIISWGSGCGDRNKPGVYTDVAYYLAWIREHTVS

[11] = target: Prothrombin (Homo sapiens, UniProt P00734); test: Thrombin 1536 HTS Dose Response Confirmation. [Related pubchem assays: 1046 (Thrombin 1536 HTS; hits were confirmed in this assay)]; type: functional
[12] = target: Neurotensin receptor type 1 (Homo sapiens, UniProt P30989); type: functional;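 note: Image-based confirmatory dose-response assay measuring agonist activity at NTR1; NTR1-expressing U2OS osteosarcoma cells imaged for beta-arrestin GFP spot formation; agonist potency where compounds increase beta-arrestin recruitment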
Sequence of Neurotensin receptor type 1 (P30989 whole entry): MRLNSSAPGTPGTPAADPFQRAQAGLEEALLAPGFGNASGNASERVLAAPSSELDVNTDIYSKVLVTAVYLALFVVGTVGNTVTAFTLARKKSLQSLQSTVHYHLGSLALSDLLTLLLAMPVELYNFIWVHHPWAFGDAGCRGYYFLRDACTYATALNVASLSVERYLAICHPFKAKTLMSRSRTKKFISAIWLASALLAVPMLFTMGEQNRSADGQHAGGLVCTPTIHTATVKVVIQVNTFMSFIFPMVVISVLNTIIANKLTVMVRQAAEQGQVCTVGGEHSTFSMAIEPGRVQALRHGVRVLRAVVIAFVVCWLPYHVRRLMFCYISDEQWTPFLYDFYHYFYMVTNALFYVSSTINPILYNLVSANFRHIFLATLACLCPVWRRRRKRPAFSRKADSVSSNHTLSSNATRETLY

[13] = target: Wee1-like protein kinase (Homo sapiens, UniProt P30291); test: HeLa cell cycle G2/M accumulation – FACS, mechanism study for Wee1 degradation inhibitor project, late-stage follow-up, panel member Wee1 Degradation (AID 2088)
Sequence of Wee1-like protein kinase (P30291 whole entry): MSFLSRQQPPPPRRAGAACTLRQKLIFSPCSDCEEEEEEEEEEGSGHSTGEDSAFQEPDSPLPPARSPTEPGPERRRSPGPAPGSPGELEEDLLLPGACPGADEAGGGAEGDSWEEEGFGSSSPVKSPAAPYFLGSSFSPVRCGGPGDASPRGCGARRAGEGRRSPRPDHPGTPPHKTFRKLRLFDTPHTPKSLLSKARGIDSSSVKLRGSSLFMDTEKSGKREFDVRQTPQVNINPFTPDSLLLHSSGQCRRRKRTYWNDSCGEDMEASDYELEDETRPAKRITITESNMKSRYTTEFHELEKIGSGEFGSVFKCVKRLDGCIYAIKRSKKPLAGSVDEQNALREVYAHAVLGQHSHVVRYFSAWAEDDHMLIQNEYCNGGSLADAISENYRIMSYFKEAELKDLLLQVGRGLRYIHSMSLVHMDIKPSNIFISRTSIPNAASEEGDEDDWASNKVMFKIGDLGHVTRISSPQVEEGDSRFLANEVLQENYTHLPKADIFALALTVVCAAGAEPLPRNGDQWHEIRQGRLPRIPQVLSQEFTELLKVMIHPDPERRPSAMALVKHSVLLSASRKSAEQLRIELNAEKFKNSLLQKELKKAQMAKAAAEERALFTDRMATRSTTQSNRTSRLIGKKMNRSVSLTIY

[14] = target: G2/mitotic-specific cyclin-B1 (Homo sapiens, UniProt P14635); test: HeLa cell cycle G2/M accumulation – FACS, mechanism study for Wee1 degradation inhibitor project, late-stage follow-up, panel member Cyclin B Degradation (AID 2088)
[15] = protection from phage-mediated lysis, alamar blue read-out – E. coli UTI89, K1F phage, bacterial capsule biogenesis inhibitors (AID 488966); type: functional
[16] = target: Cyclin-dependent kinase 5/CDK5 activator 1 (Homo sapiens, UniProt Q00535); test: blockade of human CDK5 activity – biochemical, cherry-picked samples, set 2, dose response (AID 504545)
Sequence of Cyclin-dependent kinase 5/CDK5 activator 1 (Q00535 whole entry): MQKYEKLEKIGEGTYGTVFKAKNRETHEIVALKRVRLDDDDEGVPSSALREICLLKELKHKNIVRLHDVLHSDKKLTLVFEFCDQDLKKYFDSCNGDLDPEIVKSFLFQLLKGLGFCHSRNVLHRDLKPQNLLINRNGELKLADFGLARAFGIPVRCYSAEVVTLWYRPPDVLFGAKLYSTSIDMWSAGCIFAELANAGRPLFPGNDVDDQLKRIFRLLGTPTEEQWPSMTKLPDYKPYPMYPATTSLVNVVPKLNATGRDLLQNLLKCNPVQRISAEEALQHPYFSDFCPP
Sequence of Cyclin-dependent kinase 5/CDK5 activator 1 (Q15078 whole entry, further chain): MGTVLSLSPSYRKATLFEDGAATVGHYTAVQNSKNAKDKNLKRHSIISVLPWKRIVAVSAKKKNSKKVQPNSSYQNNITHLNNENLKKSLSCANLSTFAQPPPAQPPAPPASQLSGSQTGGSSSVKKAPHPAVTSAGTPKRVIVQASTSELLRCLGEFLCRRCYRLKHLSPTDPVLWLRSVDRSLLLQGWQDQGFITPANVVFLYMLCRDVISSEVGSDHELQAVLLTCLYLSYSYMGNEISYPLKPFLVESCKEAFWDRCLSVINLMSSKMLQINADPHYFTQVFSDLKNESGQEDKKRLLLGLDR

[17] = target: T3, Fructose-bisphosphate aldolase (Mycobacterium tuberculosis, UniProt P9WQA3); test: Fluorescence-based biochemical high throughput dose response assay for inhibitors of the fructose-bisphosphate aldolase (FBA) of M. tuberculosis.; type: functional
T3 sequence (P9WQA3 whole entry): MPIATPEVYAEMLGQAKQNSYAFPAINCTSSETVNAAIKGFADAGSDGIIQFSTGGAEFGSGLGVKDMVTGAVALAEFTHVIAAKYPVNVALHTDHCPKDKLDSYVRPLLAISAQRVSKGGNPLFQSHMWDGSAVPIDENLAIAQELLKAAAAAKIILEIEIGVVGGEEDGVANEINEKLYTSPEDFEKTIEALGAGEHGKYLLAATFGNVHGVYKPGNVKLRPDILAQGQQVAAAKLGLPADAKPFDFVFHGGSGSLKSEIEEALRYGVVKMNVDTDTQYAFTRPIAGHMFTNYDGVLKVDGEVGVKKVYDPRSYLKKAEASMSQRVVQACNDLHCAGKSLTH

[18] = NIH-3T3 fibroblast cytotoxicity, dose response, cytotoxicity control, cell-based, fluorescence, Alamar Blue, secondary assay (AID 2327); type: functional;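 note: NIH-3T3 mouse fibroblasts cultured with fluconazole at 8 µg/mL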
[19] = fluconazole-exposed Candida albicans growth modulators – fluorescence, retest, confirmation (AID 2467); type: functional, cell-based
[20] = target: T4, Serine/threonine-protein phosphatase (Candida dubliniensis (strain CD36 / CBS 7987 / NCPF 3949 / NRRLY-17841) (Yeast), UniProt B9W6M3); test: blockers of CaCl2-induced CDRE-lacZ signaling – S. cerevisiae, luminescence, secondary, dose response (AID 2388); type: functional, cell-based;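 note: yeast reporter cells carrying a calcineurin-responsive lacZ construct stimulated with calcium chloride; luminescent beta-galactosidase reporter signal in whole cells rather than isolated phosphatase activity; potency for inhibition where a drop in reporter signal means calcineurin blockade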
T4 sequence (B9W6M3 whole entry): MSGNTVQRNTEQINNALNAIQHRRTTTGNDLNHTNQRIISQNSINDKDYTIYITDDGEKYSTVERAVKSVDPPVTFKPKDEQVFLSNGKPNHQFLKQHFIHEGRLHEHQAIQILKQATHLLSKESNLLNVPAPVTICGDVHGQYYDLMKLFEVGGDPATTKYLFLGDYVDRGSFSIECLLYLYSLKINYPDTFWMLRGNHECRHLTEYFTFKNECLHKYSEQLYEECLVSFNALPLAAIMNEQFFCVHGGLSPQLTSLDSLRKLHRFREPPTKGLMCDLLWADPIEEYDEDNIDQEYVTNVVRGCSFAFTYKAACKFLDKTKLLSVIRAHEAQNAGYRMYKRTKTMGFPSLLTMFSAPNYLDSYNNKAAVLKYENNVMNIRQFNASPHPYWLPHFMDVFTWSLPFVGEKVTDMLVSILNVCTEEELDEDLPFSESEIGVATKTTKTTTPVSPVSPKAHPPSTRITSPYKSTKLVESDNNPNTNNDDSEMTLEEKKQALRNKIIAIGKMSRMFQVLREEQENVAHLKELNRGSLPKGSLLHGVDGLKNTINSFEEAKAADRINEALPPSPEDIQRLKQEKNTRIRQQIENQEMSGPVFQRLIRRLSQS

[21] = Cytotoxicity screening for potential Inhibitors of Bacterial Capsule Biogenesis. [Related pubchem assays (depositor defined):AID488970]; type: functional
[22] = target: ATP-dependent molecular chaperone HSP82 (Candida albicans (strain WO-1) (Yeast), UniProt C4YTQ8); test: steroid-induced GRE reporter decrease in yeast – S. cerevisiae, luminescence, Hsp90 inhibitor project, dose response (AID 2400); type: functional, cell-based;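 note: beta-galactosidase luminescence from glucocorticoid response element reporter as proxy for Hsp90 function; inhibitor potency where signal loss means Hsp90 inhibition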
[23] = target: T5, Voltage-gated N-type calcium channel alpha-1B subunit/Amyloid beta A4 precursor protein-binding family A member 1 (Homo sapiens, UniProt Q00975+Q02410); test: disruptors of Mint-PDZ/N-type channel peptide interaction – biochemical, HTRF, set 2, SAR follow-up (AID 434980); type: functional
T5 sequence (Q00975 whole entry): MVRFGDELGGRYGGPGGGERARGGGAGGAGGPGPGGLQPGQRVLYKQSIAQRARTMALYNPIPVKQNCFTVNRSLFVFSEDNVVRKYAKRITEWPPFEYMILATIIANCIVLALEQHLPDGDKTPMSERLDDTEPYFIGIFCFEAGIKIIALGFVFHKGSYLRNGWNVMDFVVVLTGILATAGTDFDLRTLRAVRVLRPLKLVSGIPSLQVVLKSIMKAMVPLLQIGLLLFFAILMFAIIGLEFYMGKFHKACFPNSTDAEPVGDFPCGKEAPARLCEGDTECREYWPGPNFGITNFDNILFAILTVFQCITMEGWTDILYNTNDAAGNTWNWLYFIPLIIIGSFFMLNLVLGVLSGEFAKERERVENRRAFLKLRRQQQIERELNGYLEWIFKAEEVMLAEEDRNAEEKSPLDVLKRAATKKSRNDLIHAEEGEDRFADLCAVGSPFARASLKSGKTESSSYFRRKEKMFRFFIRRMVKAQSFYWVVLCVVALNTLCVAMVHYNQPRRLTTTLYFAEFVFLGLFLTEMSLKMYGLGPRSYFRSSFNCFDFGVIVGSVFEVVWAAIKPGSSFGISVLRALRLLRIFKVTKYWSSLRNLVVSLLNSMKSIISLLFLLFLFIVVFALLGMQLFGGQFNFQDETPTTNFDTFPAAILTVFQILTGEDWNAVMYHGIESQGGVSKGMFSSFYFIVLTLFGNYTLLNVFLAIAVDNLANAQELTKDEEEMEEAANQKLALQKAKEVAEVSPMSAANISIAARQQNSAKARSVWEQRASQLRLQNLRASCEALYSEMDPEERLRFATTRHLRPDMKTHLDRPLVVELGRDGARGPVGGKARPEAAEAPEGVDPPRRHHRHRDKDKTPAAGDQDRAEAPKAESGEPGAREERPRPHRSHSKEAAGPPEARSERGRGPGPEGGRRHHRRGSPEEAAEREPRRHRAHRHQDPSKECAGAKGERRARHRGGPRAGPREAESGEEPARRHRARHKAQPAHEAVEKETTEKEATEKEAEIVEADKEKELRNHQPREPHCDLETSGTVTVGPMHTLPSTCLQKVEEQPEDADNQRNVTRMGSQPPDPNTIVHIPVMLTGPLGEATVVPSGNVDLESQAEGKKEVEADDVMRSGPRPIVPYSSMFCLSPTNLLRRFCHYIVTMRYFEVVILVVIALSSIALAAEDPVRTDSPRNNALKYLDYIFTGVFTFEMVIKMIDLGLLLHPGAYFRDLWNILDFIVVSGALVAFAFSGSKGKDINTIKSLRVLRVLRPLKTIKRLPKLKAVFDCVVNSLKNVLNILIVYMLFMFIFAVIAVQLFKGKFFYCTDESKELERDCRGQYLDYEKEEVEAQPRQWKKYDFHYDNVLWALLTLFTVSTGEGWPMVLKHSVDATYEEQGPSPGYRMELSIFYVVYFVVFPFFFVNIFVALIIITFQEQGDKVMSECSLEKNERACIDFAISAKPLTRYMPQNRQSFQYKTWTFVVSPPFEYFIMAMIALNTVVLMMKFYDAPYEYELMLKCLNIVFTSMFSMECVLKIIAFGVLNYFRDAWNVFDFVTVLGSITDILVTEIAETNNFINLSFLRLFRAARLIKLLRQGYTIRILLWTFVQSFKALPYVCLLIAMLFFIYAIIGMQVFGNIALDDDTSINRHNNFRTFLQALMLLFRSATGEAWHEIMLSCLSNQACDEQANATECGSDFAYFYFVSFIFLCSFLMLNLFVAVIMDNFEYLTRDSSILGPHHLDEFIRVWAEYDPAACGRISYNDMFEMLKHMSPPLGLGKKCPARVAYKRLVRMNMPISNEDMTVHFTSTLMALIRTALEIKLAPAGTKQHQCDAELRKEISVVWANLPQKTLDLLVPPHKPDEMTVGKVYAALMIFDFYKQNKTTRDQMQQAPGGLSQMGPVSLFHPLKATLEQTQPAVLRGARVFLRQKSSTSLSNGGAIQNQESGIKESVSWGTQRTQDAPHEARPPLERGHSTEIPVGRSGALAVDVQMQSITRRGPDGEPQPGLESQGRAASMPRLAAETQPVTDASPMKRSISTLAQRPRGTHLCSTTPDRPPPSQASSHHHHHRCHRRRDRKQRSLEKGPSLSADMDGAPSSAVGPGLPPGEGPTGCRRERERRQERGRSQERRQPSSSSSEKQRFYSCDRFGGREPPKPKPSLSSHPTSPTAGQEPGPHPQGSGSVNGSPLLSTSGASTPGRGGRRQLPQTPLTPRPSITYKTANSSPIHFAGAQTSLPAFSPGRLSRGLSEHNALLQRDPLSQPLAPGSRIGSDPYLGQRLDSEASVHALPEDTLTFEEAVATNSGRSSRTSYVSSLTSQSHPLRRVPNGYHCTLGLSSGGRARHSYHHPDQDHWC
T5 sequence (Q02410 whole entry): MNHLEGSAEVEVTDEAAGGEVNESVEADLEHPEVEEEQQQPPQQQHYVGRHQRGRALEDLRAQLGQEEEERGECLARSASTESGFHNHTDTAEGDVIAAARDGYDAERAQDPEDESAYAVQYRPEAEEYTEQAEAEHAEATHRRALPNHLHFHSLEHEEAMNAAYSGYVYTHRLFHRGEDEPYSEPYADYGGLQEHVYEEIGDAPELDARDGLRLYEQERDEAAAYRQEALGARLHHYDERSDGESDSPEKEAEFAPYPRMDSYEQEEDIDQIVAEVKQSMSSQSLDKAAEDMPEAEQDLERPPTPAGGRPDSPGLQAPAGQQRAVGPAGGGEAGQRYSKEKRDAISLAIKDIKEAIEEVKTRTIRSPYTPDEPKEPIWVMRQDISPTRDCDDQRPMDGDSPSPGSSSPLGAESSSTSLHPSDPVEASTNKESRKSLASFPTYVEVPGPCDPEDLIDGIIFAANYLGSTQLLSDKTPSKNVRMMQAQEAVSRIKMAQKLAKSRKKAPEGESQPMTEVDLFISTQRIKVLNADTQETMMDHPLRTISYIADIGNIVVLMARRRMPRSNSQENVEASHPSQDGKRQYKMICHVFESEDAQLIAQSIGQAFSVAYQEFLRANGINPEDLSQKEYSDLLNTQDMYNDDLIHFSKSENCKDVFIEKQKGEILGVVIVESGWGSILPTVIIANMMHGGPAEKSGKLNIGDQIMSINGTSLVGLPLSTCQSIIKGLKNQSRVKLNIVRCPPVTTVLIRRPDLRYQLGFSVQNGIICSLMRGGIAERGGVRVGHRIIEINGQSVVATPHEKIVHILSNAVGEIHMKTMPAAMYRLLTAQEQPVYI

[24] = target: T5, Voltage-gated N-type calcium channel alpha-1B subunit/Amyloid beta A4 precursor protein-binding family A member 1; test: disruptors of Mint-PDZ/N-type channel peptide interaction – biochemical, HTRF, SAR follow-up (AID 2489); type: functional
[25] = tested on: Saccharomyces cerevisiae; test: S. cerevisiae Caspase-1/ASC signal blockers IC50, NALP1 inhibitor project selectivity test (AID 488863); type: functional, organism-based
[26] = target: NACHT, LRR and PYD domains-containing protein 1 (Homo sapiens, UniProt Q9C000); test: NALP1 inhibitors in yeast, dose response, luminescent (AID 488860); type: functional
[27] = target: Potassium voltage-gated channel subfamily KQT member 2 (Rattus norvegicus, UniProt O88943); test: potentiation of rat KCNQ2 current – cell-based, retigabine-insensitive compounds, dose response (AID 2654); type: functional
[28] = target: Eukaryotic translation initiation factor 4E (Mus musculus, UniProt P63073); test: blockers of eIF4G binding by eIF4E – biochemical, TR-FRET, dose response (AID 855); type: functional;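 note: potency for disrupting eIF4E binding to eIF4GI seen as loss of FRET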
[29] = THP-1 cell cytotoxicity, dose response, cytotoxicity control for non-replicating M. tuberculosis project (AID 489025); type: functional
[30] = HepG2 cell cytotoxicity, dose response, cytotoxicity control for non-replicating M. tuberculosis project (AID 489018); type: functional; settings: Mycobacterium tuberculosis
[31] = Vero E6 cell cytotoxicity, dose response, cytotoxicity control for non-replicating M. tuberculosis project, secondary assay (AID 492998); type: functional, VeroE6; settings: Vero C1008
[32] = cells; type: functional
[33] = NIH/3T3 cell viability loss – mouse embryonic fibroblasts, dry powder, set 2, cytotoxicity control, dose response (AID 493247); type: functional, cell-based; settings: Fibroblast
[34] = tested on: Trypanosoma cruzi; test: anti-trypanosomal activity in host cells – cell-based, plate reader, dry powder, set 3, dose response (AID 493197); type: functional

Sequence of Protein Rev (P04618 whole entry): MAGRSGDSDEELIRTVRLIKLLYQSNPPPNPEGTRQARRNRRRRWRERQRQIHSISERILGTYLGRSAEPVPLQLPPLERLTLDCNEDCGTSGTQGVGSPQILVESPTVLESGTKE

Compound: C=CCc1cccc(/C=N/n2c(C)nnc2C)c1O
- IC50 [1]: > 8.39 µM (active)
- IC50 [2]: 8.19 µM (active)

Compound: CC(Oc1ccccc1)C(=O)Nc1nnc(-c2ccc(F)cc2)o1 (centres undefined)
- EC50 [3]: 10 µM (active)

Compound: O=C(C1CCCCN1Cc1ccc(Cl)c(Cl)c1)N1CCN(c2ccc([N+](=O)[O-])cc2)CC1 (centres undefined)
- IC50 [4]: 4.6 µM (active)
- IC50 [5]: 2.3 µM (active)

Compound: COc1c(OC(C)=O)c(=O)n2c3ccccc3c3ccnc1c32
- IC50 [6]: 1.58 µM (active)

Compound: CC(C)N1C(=O)/C(=C\c2nc(O)c3ccccc3n2)c2ccccc21
- IC50 [7]: 7.59 µM (active)
- IC50 [8]: 6.84 µM (active)
- AC50 [9]: 5.37 µM (active)

Compound: CCCS(=O)(=O)N1CCN(c2ccccc2F)CC1
- IC50 [10]: > 50 µM (inactive)

Compound: CCN1C(=O)/C(=C/N(C(C)=O)c2ccccc2)N(c2ccccc2)C1=S
- IC50 [11]: > 50 µM (not active)
- EC50 [12]: 18 µM (active)

Compound: Cc1ccc(NC(=O)COc2cc(=O)n(C)c3ccccc23)nc1
- EC50 [13]: > 49.7 µM (inactive)
- EC50 [14]: > 49.7 µM (inactive)

Compound: CC12CC3CC(C)(C1)CC(CN)(C3)C2
- IC50 [15]: > 300 µM (active)

Compound: CNS(=O)(=O)c1ccc2c3c(cccc13)C(=O)N2
- AC50 [16]: 32.6 µM (active)
- IC50 [17]: 1.6 µM (active)

Compound: O=C(NCc1cc([N+](=O)[O-])ccc1O)c1cccnc1Sc1ccccc1Cl
- EC50 [18]: > 150 µM (inactive)
- EC50 [19]: 0.848 µM (active)
- EC50 [20]: > 180 µM (inactive)
- CC50 [21]: > 100 µM (active)
- EC50 [22]: > 150 µM (inactive)

Compound: CC(/C=C/c1ccco1)=NNC(=O)c1cccnc1
- IC50 [23]: 6.99 µM (active)
- IC50 [24]: 21.4 µM (active)

Compound: Cc1ccc(NC(=O)CNc2ccc(OC(C)C)cc2)cc1
- IC50 [25]: 42.6 µM (active)
- IC50 [26]: 22.6 µM (active)

Compound: S=C(Nc1cccnc1)Nc1cccc(Cl)c1
- EC50 [27]: 9.33 µM (active)

Compound: COc1ccc(-n2c(Cc3cccn3C)nnc2SCC(=O)Nc2cccc(F)c2)cc1
- IC50 [28]: > 64 µM (inactive)

Compound: O=C(NNC(=O)c1ccccn1)c1cccc([N+](=O)[O-])c1
- CC50 [29]: 26.7 µM (active)
- CC50 [30]: > 20 µM (active)
- CC50 [31]: 9.98 µM (active)
- IC50 [32]: 10.9 µM (active)

Compound: O=C(COc1ccc2ccccc2c1)N/N=C/c1ccc([N+](=O)[O-])o1
- AC50 [33]: 22.3 µM (active)
- AC50 [34]: 0.837 µM (active)
